# Source: patent US20100280070A1, “NOVEL TETRAHYDROQUINOLINES AS AROMATASE INHIBITORS” (priority 2008, published 2010)
# pIC50: −log10 of the molar value. Read-outs that look alike come from different tables or passages of the source.
# What was measured:
# aromatase [1] = molecular target: T1, aromatase (Homo sapiens, UniProt P11511); experiment: Aromatase inhibition assay in human placental microsomes; type: biochemical; set-up: Microsomal protein (1 mg, from human placental tissue); from tissue; host or cells: human placenta, microsomal fraction; details: inhibitor 500 nM; human placental microsomal protein; [1β-3H]androstenedione 15 nM; 15 min at 30° C.
# T1 sequence (P11511 1-503): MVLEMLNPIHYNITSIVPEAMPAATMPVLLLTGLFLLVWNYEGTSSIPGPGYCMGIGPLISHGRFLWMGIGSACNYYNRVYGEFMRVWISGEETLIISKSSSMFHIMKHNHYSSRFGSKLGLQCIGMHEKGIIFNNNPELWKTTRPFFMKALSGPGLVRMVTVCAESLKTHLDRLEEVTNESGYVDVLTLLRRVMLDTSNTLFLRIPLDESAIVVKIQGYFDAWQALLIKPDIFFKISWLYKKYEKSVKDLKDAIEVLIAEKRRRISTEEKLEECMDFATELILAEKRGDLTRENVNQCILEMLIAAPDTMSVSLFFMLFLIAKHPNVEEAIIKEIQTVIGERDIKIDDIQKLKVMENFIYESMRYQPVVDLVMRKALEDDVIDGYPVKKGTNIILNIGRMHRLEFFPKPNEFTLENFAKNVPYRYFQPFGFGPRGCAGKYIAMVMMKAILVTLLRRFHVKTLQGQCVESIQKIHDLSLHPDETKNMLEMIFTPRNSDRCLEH
# aromatase [2] = molecular target: T1, aromatase; details: cited from earlier work; for RP, mammary fibroblast cultures: Aminoglutethimide = 1
# aromatase [3] = molecular target: T1, aromatase; details: Aminoglutethimide = 1; cited from earlier work
# aromatase [4] = molecular target: T1, aromatase; details: read-out: IC50 from human placental microsomal assay; cited from earlier work
SMILES,inhibition at 0.5 µM (aromatase [1]) [%],also measured
"c1ccc(C2CC(n3cncn3)c3ccccc3N2)cc1 (stereo not shown) [Compound 6h, 2-Phenyl-4-[1,2,4]triazol-1-yl-1,2,3,4-tetrahydro-quinoline]",11.2,–
"O=c1c(Cc2ccncc2)c(-c2ccccc2)[nH]c2ccccc12 [Compound 10a, 2-Phenyl-3-((pyridin-4-yl)methyl)quinolin-4(1H)-one]",7.2,–
"O=c1c(Cc2ccncc2)c(-c2ccc(Cl)cc2)[nH]c2c(Br)cc(Br)cc12 [Compound 10k, 6,8-Dibromo-2-(4-Chlorophenyl)-3-((pyridin-4-yl)methyl)quinolin-4(1H)-one]",55.7,–
"Fc1ccc(C2CC(n3cncn3)c3ccccc3N2)cc1 (stereo not shown) [Compound 6n, 2-(4-Fluorophenyl)-4-[1,2,4]triazol-1-yl-1,2,3,4-tetrahydro-quinoline]",19.5,–
"N#Cc1ccc(C2CC(n3ccnc3)c3ccccc3N2)cc1 (stereo not shown) [Compound 6f, 4-(4-Imidazol-1-yl-1,2,3,4-tetrahydro-quinolin-2-yl)-benzonitrile]",84.3,–
"O=c1c(Cc2ccncc2)c(-c2ccccc2)[nH]c2c(Br)cc(Br)cc12 [Compound 10h, 6,8-Dibromo-2-phenyl-3-((pyridin-4-yl)methyl)quinolin-4(1H)-one]",27.3,–
"Brc1ccc(C2CC(n3cncn3)c3ccccc3N2)cc1 (stereo not shown) [Compound 6l, 2-(4-Bromophenyl)-4-[1,2,4]triazol-1-yl-1,2,3,4-tetrahydro-quinoline]",43.9,–
"O=c1c(Cc2ccncc2)c(-c2ccc(Br)cc2)[nH]c2ccccc12 [Compound 10e, 2-(4-Bromophenyl)-3-((pyridin-4-yl)methyl)quinolin-4(1H)-one]",8.2,–
"N#Cc1ccc(C2CC(n3cncn3)c3ccccc3N2)cc1 (stereo not shown) [Compound 6m, 4-(4-[1,2,4]Triazol-1-yl-1,2,3,4-tetrahydro-quinolin-2-yl)-benzonitrile]",36.1,–
"Cc1ccc(C2CC(n3ccnc3)c3ccccc3N2)cc1 (stereo not shown) [Compound 6b, 2-(p-Tolyl)-4-imidazol-1-yl-1,2,3,4-tetrahydro-quinoline]",67.4,–
CC(C)(C#N)c1cc(Cn2cncn2)cc(C(C)(C)C#N)c1 [Anasatrozole],–,"RP, mammary fibroblast cultures (aromatase [2]): 570; RP, breast cancer homogenates (aromatase [3]): 450"
C[C@]12CCC(=O)C(O)=C1CC[C@@H]1[C@@H]2CC[C@]2(C)C(=O)CC[C@@H]12 [Formestane],–,"pIC50 (aromatase [4]): 7.30; pIC50 (aromatase [2]; read-out: IC50, mammary fibroblast cultures): 7.35"
N#Cc1ccc(-c2[nH]c3ccccc3c(=O)c2Cc2ccncc2)cc1 [Compound 10f],1.8,–
"Cc1ccc(C2CC(n3cncn3)c3ccccc3N2)cc1 (stereo not shown) [Compound 6i, 2-(p-Tolyl)-4-[1,2,4]triazol-1-yl-1,2,3,4-tetrahydro-quinoline]",13.6,–
"COc1ccc(C2CC(n3cncn3)c3ccccc3N2)cc1 (stereo not shown) [Compound 6j, 2-(4-Methoxyphenyl)-4-[1,2,4]triazol-1-yl-1,2,3,4-tetrahydro-quinoline]",12.8,–
"Clc1ccc(C2CC(n3ccnc3)c3ccccc3N2)cc1 (stereo not shown) [Compound 6d, 2-(4-Chlorophenyl)-4-imidazol-1-yl-1,2,3,4-tetrahydro-quinoline]",87.4,–
"Brc1ccc(C2CC(n3ccnc3)c3ccccc3N2)cc1 (stereo not shown) [Compound 6e, 2-(4-Bromophenyl)-4-imidazol-1-yl-1,2,3,4-tetrahydro-quinoline]",89.7,–
"O=c1c(Cc2ccncc2)c(-c2ccc(Cl)cc2)[nH]c2ccccc12 [Compound 10d, 2-(4-Chlorophenyl)-3-((pyridin-4-yl)methyl)quinolin-4(1H)-one]",13.7,–
"Cc1ccc(-c2[nH]c3c(Br)cc(Br)cc3c(=O)c2Cc2ccncc2)cc1 [Compound 10i, 6,8-Dibromo-2-(p-tolyl)-3-((pyridin-4-yl)methyl)quinolin-4(1H)-one]",22.3,–
"COc1ccc(-c2[nH]c3c(Br)cc(Br)cc3c(=O)c2Cc2ccncc2)cc1 [Compound 10j, 6,8-Dibromo-2-(4-Methoxyphenyl)-3-((pyridin-4-yl)methyl)quinolin-4(1H)-one]",40.5,–
N#Cc1ccc(C(c2ccc(C#N)cc2)n2cncn2)cc1 [Letrozole],–,"RP, mammary fibroblast cultures (aromatase [2]): 10,000; RP, breast cancer homogenates (aromatase [3]): 1800"
"COc1ccc(C2CC(n3ccnc3)c3ccccc3N2)cc1 (stereo not shown) [Compound 6c, 2-(4-Methoxyphenyl)-4-imidazol-1-yl-1,2,3,4-tetrahydro-quinoline]",53.1,–
"Fc1ccc(C2CC(n3ccnc3)c3ccccc3N2)cc1 (stereo not shown) [Compound 6g, 2-(4-Fluorophenyl)-4-imidazol-1-yl-1,2,3,4-tetrahydro-quinoline]",80.5,–
"Cc1ccc(-c2[nH]c3ccccc3c(=O)c2Cc2ccncc2)cc1 [Compound 10b, 2-(p-Tolyl)-3-((pyridin-4-yl)methyl)quinolin-4(1H)-one]",3.1,–
"COc1ccc(-c2[nH]c3ccccc3c(=O)c2Cc2ccncc2)cc1 [Compound 10c, 2-(4-Methoxyphenyl)-3-((pyridin-4-yl)methyl)quinolin-4(1H)-one]",0.7,–
"c1ccc(C2CC(n3ccnc3)c3ccccc3N2)cc1 (stereo not shown) [Compound 6a, 2-Phenyl-4-imidazol-1-yl-1,2,3,4-tetrahydro-quinoline]",61.8,–
"O=c1c(Cc2ccncc2)c(-c2ccc(F)cc2)[nH]c2ccccc12 [Compound 10g, 2-(4-Fluorophenyl)-3-((pyridin-4-yl)methyl)quinolin-4(1H)-one]",11.8,–
"Clc1ccc(C2CC(n3cncn3)c3ccccc3N2)cc1 (stereo not shown) [Compound 6k, 2-(4-Chlorophenyl)-4-[1,2,4]triazol-1-yl-1,2,3,4-tetrahydro-quinoline]",41.9,–
